Tests used:
[1] = organism: Rattus norvegicus; test: In vitro inhibition of ADP-induced platelet aggregation in rat platelet rich plasma; assay type: functional
[2] = organism: Canis familiaris; test: In vitro inhibition of ADP-induced platelet aggregation in dog platelet rich plasma; assay type: functional; settings: Canis lupus familiaris
[3] = In vitro inhibition of ADP-induced platelet aggregation in human platelet rich plasma; assay type: functional, cell-free
[4] = Maximum (peak) plasma drug concentration after peroral administration at a dose of 3.2 mg/kg in rat (n=3); assay type: ADME, organism-based; design: dose 3.2 mg/kg, route oral; settings: po
[5] = Elimination half-life after intravenous administration at a dose of 3.2 mg/kg in rat (n=3); assay type: ADME, organism-based; design: dose 3.2 mg/kg, route intravenous; settings: in vivo
[6] = Area under plasma concentration-time curve after peroral administration at a dose of 3.2 mg/kg in rat (n=3); assay type: ADME, organism-based; design: dose 3.2 mg/kg, route oral; settings: po
[7] = In vitro inhibition of ADP-induced platelet aggregation in monkey platelet rich plasma; assay type: functional; settings: Cercopithecidae
[8] = Percent oral bioavailability of the drug after intravenous administration at 0.032 mg/kg in dog; assay type: ADME, organism-based, Canis lupus familiaris; settings: in vivo, read-out: Ba
[9] = Maximum (peak) plasma drug concentration after peroral administration at a dose of 0.032 mg/kg in dog; assay type: ADME, organism-based, Canis lupus familiaris; design: dose 0.032 mg/kg, route oral; settings: po
[10] = Elimination half-life after intravenous administration at a dose of 0.032 mg/kg in dog; assay type: ADME, organism-based, Canis lupus familiaris; design: dose 0.032 mg/kg, route intravenous; settings: in vivo
[11] = Area Under Plasma concentration-time curve after peroral administration at a dose of 0.032 mg/kg in dog; assay type: ADME, organism-based, Canis lupus familiaris; design: dose 0.032 mg/kg, route oral; settings: po
[12] = Total body clearance of drug from the plasma after intravenous administration at 0.032 mg/kg in dog; assay type: ADME, organism-based, Canis lupus familiaris; design: dose 0.032 mg/kg, route intravenous; settings: read-out: CLtot
[13] = Total body clearance of drug from the plasma after intravenous administration at 3.2 mg/kg in rat; assay type: ADME, organism-based; design: dose 3.2 mg/kg, route intravenous; settings: read-out: CLtot
[14] = Percent oral bioavailability after intravenous administration at 3.2 mg/kg in rat; assay type: ADME, organism-based; settings: in vivo, read-out: Ba

Structure (SMILES)	IC50 [1]	IC50 [3]	also measured
O=C(O)COc1cccc(C[C@@H]2CCCC=C2c2nc(-c3ccccc3)c(-c3ccccc3)o2)c1	1200 nM	60 nM	IC50 [2]: 1300 nM
O=C(O)COc1cccc2c1CCC[C@@H]2OCc1nc(-c2ccccc2)c(-c2ccccc2)o1		1400 nM	
O=C([O-])COc1cccc2c1CCC[C@H]2N1CCC[C@@H]1c1nc(-c2ccccc2)c(-c2ccccc2)o1.[Na+]	630 nM	19 nM	Cmax [4]: 187 ng/mL; half-life [5]: 0.21 h; IC50 [2]: 780 nM; AUC [6]: 172 ng·h/mL; IC50 [7]: 59 nM; bioavailability [8]: 66%; Cmax [9]: 61.2 ng/mL; half-life [10]: 2.25 h; AUC [11]: 327 ng·h/mL; clearance [12]: 1 mL/min/kg; clearance [13]: 89.2 mL/min/kg; bioavailability [14]: 31%
O=C(O)COc1cccc2c1CCC[C@@H]2N1CCC[C@@H]1c1nc(-c2ccccc2)c(-c2ccccc2)o1	> 10000 nM	870 nM	
O=C(O)COc1cccc2c1CCC[C@H]2NCc1nc(-c2ccccc2)c(-c2ccccc2)o1	5000 nM	190 nM	
O=C(O)COc1cccc2c1CCCC2CCc1nc(-c2ccccc2)c(-c2ccccc2)o1 (configuration not stated)	> 10000 nM	1000 nM	
O=C(O)COc1cccc2c1CCC[C@H]2OCc1nc(-c2ccccc2)c(-c2ccccc2)o1		140 nM	
O=C(O)COc1cccc2c1CCC[C@@H]2NCc1nc(-c2ccccc2)c(-c2ccccc2)o1		1500 nM	
O=C(O)COc1cccc2c1CCC[C@@H]2N1CCC[C@H]1c1nc(-c2ccccc2)c(-c2ccccc2)o1	2200 nM	63 nM	
O=C(O)COc1cccc2c1CCC[C@H]2N1CCC[C@H]1c1nc(-c2ccccc2)c(-c2ccccc2)o1	> 10000 nM	640 nM	
CCC/C(CC1CCc2c(cccc2OCC(=O)O)C1)=N\OC(c1ccccc1)c1ccccc1 (configuration not stated) [AP-227]		150 nM	
CC#CCC(C)[C@H](O)/C=C/[C@@H]1[C@H]2C/C(=C/CCCC(=O)O)C[C@H]2C[C@H]1O (some centres not stated) [ILOPROST]		2.5 nM	

From ChEMBL document CHEMBL1140241, “Discovery of new diphenyloxazole derivatives containing a pyrrolidine ring: orally active prostacyclin mimetics. Part 2” (Bioorg Med Chem Lett, 2005)
